{
  "source": "patent US4794118A",
  "about": "“1,4-benzodioxane derivatives” (Eisai Co., Ltd., priority 1985, dated 1988)",
  "key": {"coronary blood flow": {"test_system": "coronary blood flow", "experiment": "Effects on the coronary blood flow in anesthetized open-chest dogs", "format": "in vivo, mongrel dogs", "conditions": "for Max. increase in coronary blood flow: anesthetized open-chest dogs", "protocol": "Effects on the coronary blood flow in anesthetized open-chest dogs\nMongrel dogs of either sex weighing 9-14 kg were subjected to inhalation anesthesia with enflurane under artificial respiration. […] Test compounds were administered cumulatively at intervals of 10 minutes through a catheter inserted into the left femoral vein."}, "[1]": {"test_system": "arterial and venous systems", "experiment": "Effects on the arterial and venous systems in anesthetized open-chest dogs", "format": "in vivo, mongrel dogs", "conditions": "for Max. change in mean blood pressure at diastole, Aortic / Max. change in mean blood pressure at diastole, Pulmonary: anesthetized open-chest dogs", "protocol": "Effects on the arterial and venous systems in anesthetized open-chest dogs\nMongrel dogs of either sex, weighing 12-16 kg were subjected to inhalation anesthesia with enflurane under artificial respiration. The dogs were subjected to thoracotomy through the fourth right intercostal wall and catheters were inserted into the thoracic aorta and right pulmonary artery. The aortic and pulmonary blood pressures were measured by means of cathether tip-type piezoelectric transducers.\nTest compounds were cumulatively administered with intervals of 30 minutes either intravenously or intraduodenally through catheters placed in the left femoral vein and duodenum."}, "[2]": {"test_system": "spontaneously hypertensive rats (SHR)", "experiment": "Hypotensive effects in spontaneously hypertensive rats (SHR) under anesthesia", "format": "in vivo, rat (SHR)", "conditions": "anesthetized SHR", "protocol": "Hypotensive effects in spontaneously hypertensive rats (SHR) under anesthesia\nMale SHR of 20 weeks of age or older were anesthetized with sodium pentobarbital (40 mg/kg, i.p.). The carotid artery and jugular vein were cannulated. Blood pressure was recorded from the carotid artery on a polygraph via a pressure transducer. Test compounds were dissolved in a solution containing 0.9% NaCl and 1% Tween 80 and administered either intravenously into the jugular vein or intraduodenally through a cannula inserted into the duodenum.\nAs a representative of this invention, compound A (8-hydroxy-2-nitrato-methyl-7-nitro-1,4-benzodioxane) was chosen."}, "Acute toxicity in mice": {"experiment": "Acute toxicity in mice", "conditions": "mouse, in vivo", "protocol": "Acute toxicity in mice was investigated with respect to 8-hydroxy-2-nitratomethyl-7-nitro-1,4-benzodioxane. […] A similar experiment was also conducted with an intravenous administration of NG."}, "[3]": {"conditions": "intravenous administration, dogs"}, "[4]": {"conditions": "intravenous, dogs, vs nicorandil"}},
  "data": [
    {"smiles": "O=[N+]([O-])OCC1COc2ccc([N+](=O)[O-])c(O)c2O1", "note": "(stereo not drawn) [Compound A, 8-hydroxy-2-nitratomethyl-7-nitro-1,4-benzodioxane]", "values": [
      {"measurement": "Max. increase in coronary blood flow", "setting": "coronary blood flow; 1 μg/Kg, intravenous", "result": 52.0, "unit": "%"},
      {"measurement": "Max. increase in coronary blood flow", "setting": "coronary blood flow; 3 μg/Kg, intravenous", "result": 84.7, "unit": "%"},
      {"measurement": "Max. increase in coronary blood flow", "setting": "coronary blood flow; 10 μg/Kg, intravenous", "result": 127.6, "unit": "%"},
      {"measurement": "dose range causing a marked and dose-dependent increase in coronary blood flow", "setting": "coronary blood flow; [3]", "result": "0.001 to 0.01", "unit": "mg/kg"},
      {"measurement": "effect on the coronary flow, potency relative to NG", "setting": "coronary blood flow; intravenous, dogs, vs NG", "result": "about 3 times"},
      {"measurement": "Max. change in mean blood pressure at diastole, Aortic", "setting": "[1]; i.d, 30 μg/Kg", "result": -2, "unit": "mm/Hg"},
      {"measurement": "Max. change in mean blood pressure at diastole, Pulmonary", "setting": "[1]; i.d, 30 μg/Kg", "result": -1.5, "unit": "mm/Hg"},
      {"measurement": "Max. change in mean blood pressure at diastole, Aortic", "setting": "[1]; i.d, 100 μg/Kg", "result": -15, "unit": "mm/Hg"},
      {"measurement": "Max. change in mean blood pressure at diastole, Pulmonary", "setting": "[1]; i.d, 100 μg/Kg", "result": -2.5, "unit": "mm/Hg"},
      {"measurement": "Max. change in mean blood pressure at diastole, Aortic", "setting": "[1]; i.d, 300 μg/Kg", "result": -22, "unit": "mm/Hg"},
      {"measurement": "Max. change in mean blood pressure at diastole, Pulmonary", "setting": "[1]; i.d, 300 μg/Kg", "result": -3.5, "unit": "mm/Hg"},
      {"measurement": "Max. change in mean blood pressure at diastole, Aortic", "setting": "[1]; i.v, 1 μg/Kg", "result": -23, "unit": "mm/Hg"},
      {"measurement": "Max. change in mean blood pressure at diastole, Pulmonary", "setting": "[1]; i.v, 1 μg/Kg", "result": -2.5, "unit": "mm/Hg"},
      {"measurement": "Max. change in mean blood pressure at diastole, Aortic", "setting": "[1]; i.v, 3 μg/Kg", "result": -39.2, "unit": "mm/Hg"},
      {"measurement": "Max. change in mean blood pressure at diastole, Pulmonary", "setting": "[1]; i.v, 3 μg/Kg", "result": -3.2, "unit": "mm/Hg"},
      {"measurement": "Max. change in mean blood pressure at diastole, Aortic", "setting": "[1]; i.v, 10 μg/Kg", "result": -44.2, "unit": "mm/Hg"},
      {"measurement": "Max. change in mean blood pressure at diastole, Pulmonary", "setting": "[1]; i.v, 10 μg/Kg", "result": -5.3, "unit": "mm/Hg"},
      {"measurement": "reductions in aortic and pulmonary blood pressures", "setting": "[1]; intraduodenal administration, dogs", "result": "dose-dependent reductions in aortic and pulmonary blood pressures"},
      {"measurement": "potency (reductions in aortic and pulmonary blood pressures) relative to NG", "setting": "[1]; intraduodenal, dogs, vs NG", "result": "about 3 times"},
      {"measurement": "reduction of aortic and pulmonary blood pressure", "setting": "[1]; [3]", "result": "reduced aortic and pulmonary blood pressure dose-dependently"},
      {"measurement": "vasodilating effect on the arterial system (reduction in aortic blood pressure) relative to nicorandil", "setting": "[1]; [4]", "result": "about 3 times"},
      {"measurement": "vasodilating effect on the venous system (reduction in pulmonary blood pressure) relative to nicorandil", "setting": "[1]; [4]", "result": "about 3 times"},
      {"measurement": "minimal effective dose", "setting": "[2]; Rattus norvegicus, intravenous administration, read-out: dose as small as which caused a marked hypotension", "result": 0.0003, "unit": "mg/kg"},
      {"measurement": "hypotension", "setting": "[2]; intraduodenal administration", "result": "dose-dependent hypotension"},
      {"measurement": "hypotensive potency relative to ISDN", "setting": "[2]; intraduodenal, vs ISDN", "result": "~30", "unit": "times"},
      {"measurement": "hypotensive potency relative to NG", "setting": "[2]; intraduodenal, vs NG", "result": "~10", "unit": "times"},
      {"measurement": "hypotensive potency relative to nicorandil", "setting": "[2]; intraduodenal, vs nicorandil", "result": "about 5 times"},
      {"measurement": "potency to cause 30% decrease in mean aortic pressure relative to ISDN", "setting": "[2]; intravenous, vs ISDN", "result": 250, "unit": "times"},
      {"measurement": "potency to cause 30% decrease in mean aortic pressure relative to NG", "setting": "[2]; intravenous, vs NG", "result": 5, "unit": "times"},
      {"measurement": "potency to cause 30% decrease in mean aortic pressure relative to nicorandil", "setting": "[2]; intravenous, vs nicorandil", "result": 300, "unit": "times"},
      {"measurement": "LD50", "setting": "Acute toxicity in mice; intravenous administration", "result": "200 to 250", "unit": "mg/kg"},
      {"measurement": "LD50", "setting": "Acute toxicity in mice; oral administration", "result": "500 to 1000", "unit": "mg/kg"}
    ]},
    {"smiles": "O=[N+]([O-])OCC(CO[N+](=O)[O-])O[N+](=O)[O-]", "note": "[NG, nitroglycerin]", "values": [
      {"measurement": "Max. increase in coronary blood flow", "setting": "coronary blood flow; 3 μg/Kg, intravenous", "result": 31.3, "unit": "%"},
      {"measurement": "Max. increase in coronary blood flow", "setting": "coronary blood flow; 10 μg/Kg, intravenous", "result": 79.7, "unit": "%"},
      {"measurement": "Max. increase in coronary blood flow", "setting": "coronary blood flow; 30 μg/Kg, intravenous", "result": 165.0, "unit": "%"},
      {"measurement": "Max. change in mean blood pressure at diastole, Aortic", "setting": "[1]; i.d, 30 μg/Kg", "result": -1.7, "unit": "mm/Hg"},
      {"measurement": "Max. change in mean blood pressure at diastole, Pulmonary", "setting": "[1]; i.d, 30 μg/Kg", "result": -0.7, "unit": "mm/Hg"},
      {"measurement": "Max. change in mean blood pressure at diastole, Aortic", "setting": "[1]; i.d, 100 μg/Kg", "result": -3.3, "unit": "mm/Hg"},
      {"measurement": "Max. change in mean blood pressure at diastole, Pulmonary", "setting": "[1]; i.d, 100 μg/Kg", "result": -1, "unit": "mm/Hg"},
      {"measurement": "Max. change in mean blood pressure at diastole, Aortic", "setting": "[1]; i.d, 300 μg/Kg", "result": -10, "unit": "mm/Hg"},
      {"measurement": "Max. change in mean blood pressure at diastole, Pulmonary", "setting": "[1]; i.d, 300 μg/Kg", "result": -1.7, "unit": "mm/Hg"},
      {"measurement": "Max. change in mean blood pressure at diastole, Aortic", "setting": "[1]; i.v, 3 μg/Kg", "result": -21.7, "unit": "mm/Hg"},
      {"measurement": "Max. change in mean blood pressure at diastole, Pulmonary", "setting": "[1]; i.v, 3 μg/Kg", "result": -0.8, "unit": "mm/Hg"},
      {"measurement": "Max. change in mean blood pressure at diastole, Aortic", "setting": "[1]; i.v, 10 μg/Kg", "result": -33.3, "unit": "mm/Hg"},
      {"measurement": "Max. change in mean blood pressure at diastole, Pulmonary", "setting": "[1]; i.v, 10 μg/Kg", "result": -3.0, "unit": "mm/Hg"},
      {"measurement": "Max. change in mean blood pressure at diastole, Aortic", "setting": "[1]; i.v, 30 μg/Kg", "result": -40.0, "unit": "mm/Hg"},
      {"measurement": "Max. change in mean blood pressure at diastole, Pulmonary", "setting": "[1]; i.v, 30 μg/Kg", "result": -3.7, "unit": "mm/Hg"},
      {"measurement": "LD50", "setting": "Acute toxicity in mice; intravenous administration", "result": "10 to 15", "unit": "mg/kg"}
    ]},
    {"smiles": "O=C(NCCO[N+](=O)[O-])c1cccnc1", "note": "[Nicorandil, N-[2-(nitroxy)ethyl]-3-pyridinecarboxamide]", "values": [
      {"measurement": "Max. change in mean blood pressure at diastole, Aortic", "setting": "[1]; i.v, 30 μg/Kg", "result": -10.3, "unit": "mm/Hg"},
      {"measurement": "Max. change in mean blood pressure at diastole, Pulmonary", "setting": "[1]; i.v, 30 μg/Kg", "result": -1, "unit": "mm/Hg"},
      {"measurement": "Max. change in mean blood pressure at diastole, Aortic", "setting": "[1]; i.v, 100 μg/Kg", "result": -18.6, "unit": "mm/Hg"},
      {"measurement": "Max. change in mean blood pressure at diastole, Pulmonary", "setting": "[1]; i.v, 100 μg/Kg", "result": -1.5, "unit": "mm/Hg"},
      {"measurement": "Max. change in mean blood pressure at diastole, Aortic", "setting": "[1]; i.v, 300 μg/Kg", "result": -50.9, "unit": "mm/Hg"},
      {"measurement": "Max. change in mean blood pressure at diastole, Pulmonary", "setting": "[1]; i.v, 300 μg/Kg", "result": -2.1, "unit": "mm/Hg"}
    ]}
  ]
}
